For one assay, the target named is T1, 5-lipoxygenase (Rattus norvegicus, UniProt P12527).
T1 construct: The 100,000 x g supernatant fraction of Rat Basophilic Leukemia Cell Homogenate (RBL-1) serves as a 5-lipoxygenase enzyme source; endogenous in cells; host or cells: RBL-1 (rat basophilic leukemia) cells, 100,000 x g supernatant of the homogenate
T1 sequence (P12527 1-673): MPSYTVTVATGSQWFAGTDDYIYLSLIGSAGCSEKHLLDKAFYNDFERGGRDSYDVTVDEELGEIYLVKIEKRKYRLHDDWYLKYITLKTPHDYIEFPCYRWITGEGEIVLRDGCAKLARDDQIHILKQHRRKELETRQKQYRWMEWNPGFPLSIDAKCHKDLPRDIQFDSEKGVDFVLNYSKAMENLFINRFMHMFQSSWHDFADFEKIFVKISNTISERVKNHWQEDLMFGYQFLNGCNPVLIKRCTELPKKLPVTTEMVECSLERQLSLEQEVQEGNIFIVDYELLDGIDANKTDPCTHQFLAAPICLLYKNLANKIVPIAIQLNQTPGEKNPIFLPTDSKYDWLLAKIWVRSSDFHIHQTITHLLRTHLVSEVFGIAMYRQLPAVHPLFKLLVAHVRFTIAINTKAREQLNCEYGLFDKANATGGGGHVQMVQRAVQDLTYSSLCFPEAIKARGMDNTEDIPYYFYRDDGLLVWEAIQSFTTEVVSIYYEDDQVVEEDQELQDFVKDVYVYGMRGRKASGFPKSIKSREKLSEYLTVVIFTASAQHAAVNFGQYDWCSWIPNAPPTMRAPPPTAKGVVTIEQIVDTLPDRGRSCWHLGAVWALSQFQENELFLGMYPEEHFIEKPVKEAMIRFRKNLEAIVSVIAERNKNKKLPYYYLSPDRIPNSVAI
The assay can be described thus: Inhibition of 5-lipoxygenase, in vitro (5-HETE synthesis from [1-14C]-arachidonic acid, RBL-1 supernatant). Format: biochemical. The settings on record: 100,000 x g supernatant of Rat Basophilic Leukemia Cell Homogenate (RBL-1); active = 30% or more inhibition of 5-HETE synthesis; initial screening 1 x 10⁻⁴M. The protocol: The compounds of the invention are evaluated with respect to 5-lipoxygenase inhibition according to the following assay procedure.
Inhibition of 5-lipoxygenase, in vitro: anti-inflammatory, anti-allergy activities.
The 100,000 x g supernatant fraction of Rat Basophilic Leukemia Cell Homogenate (RBL-1) serves as a 5-lipoxygenase enzyme source. The enzyme is incubated with [1-¹⁴C)-arachidonic acid and Ca⁺⁺ in the presence and absence of test compound. The product of 5-lipoxygenase, 5-hydroxyeicosatetraenoic acid (5-HETE), is separated by thin-layer chromatography and measured by radioactivity. A compound inhibiting 5-HETE synthesis by 30% or more is considered active at that concentration. Initial screening doses are 1 x 10⁻⁴M.
On to `COC(=O)CCS(=O)(=O)c1cc(C(C)(C)C)c(O)c(C(C)(C)C)c1` [Example 11, Methyl 3-[[3,5-bis(1,1 dimethylethyl)-4-hydroxyphenyl]sulfonyl]propanoate], for which the “5-Lipoxygenase Inhibition, in vitro. IC₅₀” value is on record as “Inactive”.

The assay is the same for the next values; noted with them: 100,000 x g supernatant of Rat Basophilic Leukemia Cell Homogenate (RBL-1); active = 30% or more inhibition of 5-HETE synthesis; initial screening 1 x 10⁻⁴M; read-out: 5-Lipoxygenase Inhibition, in vitro. IC₅₀.
As for `CC(C)(C)c1cc(SCCCC(=O)O)cc(C(C)(C)C)c1O` [Example 3, 4-[[3,5-bis(1,1-dimethylethyl)-4-hydroxyphenyl]thio] butanoic acid], the IC50 is 1000 nM. Consider `CC(C)(C)c1cc(SCCCCC(=O)O)cc(C(C)(C)C)c1O` [Example 4, 5-[[3,5-bis(1,1-dimethylethyl)-4-hydroxyphenyl]thio]pentanoic acid], for which the IC50 amounted to 1100 nM.

For `CCOC(=O)C(C)Sc1cc(C(C)(C)C)c(O)c(C(C)(C)C)c1` (centres unmarked) [Example 5, Ethyl 2-[[3,5-bis(1,1-dimethylethyl)-4-hydroxyphenyl]thio]propanoate], the IC50 was 390 nM. Consider `CCCC(Sc1cc(C(C)(C)C)c(O)c(C(C)(C)C)c1)C(=O)OCC` (centres unmarked) [Example 7, Ethyl 2-[[3,5-bis(1,1-dimethylethyl)-4-hydroxyphenyl]thio]pentanoate], for which the IC50 stood at 1300 nM. As for `CCCC(Sc1cc(C(C)(C)C)c(O)c(C(C)(C)C)c1)C(=O)O` (centres unmarked) [Example 8], the IC50 amounted to 6600 nM.

`COC(=O)CCSc1cc(C(C)(C)C)c(O)c(C(C)(C)C)c1` [Example 9, Methyl 3-[[3,5-bis(1,1-dimethylethyl)-4-hydroxyphenol]thio]propanoate]: the IC50 stood at 380 nM. For `COC(=O)CC[S+]([O-])c1cc(C(C)(C)C)c(O)c(C(C)(C)C)c1` (centres unmarked) [Example 10, Methyl 3-[[3,5-bis(1,1-dimethylethyl)-4-hydroxyphenyl]sulfinyl]propanoate], the IC50 came out at 16500 nM. For `CC(C)(C)c1cc(SCCC(=O)O)cc(C(C)(C)C)c1O` [Example 12, 3-[[3,5-bis(1,1-dimethylethyl)-4-hydroxyphenyl]thio]propanic acid], the IC50 was found to be 3400 nM. As for `CCOC(=O)C=CCCSc1cc(C(C)(C)C)c(O)c(C(C)(C)C)c1` [Example 13, Ethyl 5-[[3,5-bis(1,1-dimethylethyl)-4-hydroxyphenyl]thio]-2-pentenoate], the IC50 is 260 nM. Take `COC(=O)CSSc1cc(C(C)(C)C)c(O)c(C(C)(C)C)c1` [Example 14, Methyl [[3,5-bis(1,1-dimethylethyl)-4-hydroxyphenyl]dithio]acetate]: the IC50 turned out to be 400 nM.
